One molecule from US20230026577A1, “Ophthalmic Pharmaceutical Compositions” (Vanda Pharmaceuticals Inc., priority 2019, published 2023) can be followed below.

Series [1] can be described thus: Forced degradation studies of the compound of Formula I. The class given is physicochemical. The text has this:
The formation of the compound of Formula II is slowed and/or eliminated by inclusion of an "antioxidant system," as described herein, in the novel ophthalmic solution compositions described herein.

Series [2] can be described thus: Solubility of the compound of Formula I in various materials (HPLC with UV detector). It counts as physicochemical. On the procedure: The solubility of the compound of Formula I in various materials is determined.

As for `CNc1nc(Nc2ccccc2)nc(OCC(F)(F)C(F)F)n1` [Formula I, N^2-methyl-N^4-phenyl-6-(2,2,3,3-tetrafluoropropoxy)-1,3,5-triazine-2,4-diamine], the “Formation of the compound of Formula II” value in series [1] is reported as “not formed”. The solubility (commonly how much of the substance goes into solution per volume) in series [2] (0.2% poloxamer in water, aqueous with cosolvent or surfactant or cyclodextrin) was 10 µg/mL; in series [2] (0.5% polyoxyl 40 hydrogenated castor oil in water, aqueous with cosolvent or surfactant or cyclodextrin), 70 µg/mL; in series [2] (1% polysorbate-80 in water, aqueous with cosolvent or surfactant or cyclodextrin), 100 µg/mL; in series [2] (1.4% polyvinyl alcohol in water, aqueous with cosolvent or surfactant or cyclodextrin, 1.4% Poly Vinyl Alcohol in water), 10 µg/mL; in series [2] (5% polyoxyl 35 castor oil in water, aqueous with cosolvent or surfactant or cyclodextrin) it was 480 µg/mL; in series [2] (7% polyoxyl 40 stearate in water, aqueous with cosolvent or surfactant or cyclodextrin), 620 µg/mL. Moreover, the solubility in series [2] (castor oil, oil or lipid) was 1090 µg/mL; in series [2] (glycerine, organic solvent or mixture), 100 µg/mL; in series [2] (mineral oil, oil or lipid), 40 µg/mL; in series [2] (polyethylene glycol 400 (PEG-400), organic solvent or mixture) it was 14500 µg/mL; in series [2] (propylene glycol (PG), organic solvent or mixture) it was 4960 µg/mL; in series [2] (purified water, water) it was below 10 µg/mL.
